Measured values from patent publication US9994691B2, “Antimicrobial cleansing composition” (Conopco, Inc., d/b/a UNILEVER, priority 2014, dated 2018).

Source text: Disclosed antimicrobial cleansing composition includes 0.1 to 100 ppm silver (I) compound. […] More particularly, silver ion solubility [Ag+], a value given in mol/L may be calculated using the formula: [Ag+]=(Ksp·x)^(1/(x+1))

With `[Cl][Ag]` [Silver chloride] the “Silver Ion Solubility [Ag+]” value was 13 µM.
